Measurements as given in US20260364214A1, “MULTIVALENT FIBROBLAST ACTIVATION PROTEIN LIGANDS FOR TARGETED DELIVERY APPLICATIONS” (Philochem AG, priority 2022, published 2026).

What was measured:
SK-RC-52.hFAP tumors [1] = assay: Therapeutic efficacy in dose escalation and in combination with L19-IL2; format: in vivo, mouse (athymic Balb/c AnNRj-Foxn1); conditions: 5, 15 or 30 MBq/mouse on day 7
Protocol: Prior to the therapy studies, precursors (25 nmol) were dissolved in 25 μL of milliQ water, then sodium acetate buffer (75 μL, 1 M in water) and 25, 75 or 150 MBq of ^177Lu solution were added. The mixture was heated at 90 °C for 1 minutes followed by dilution with 400 μL of PBS to afford a final volume of 500 μL (5 doses of 100 μL each). Quality control of radiosynthesis was performed using radio-HPLC.
The anti-cancer efficacy of L19-IL2 as single agent (3×0.05 mg/mouse), ^177Lu-Tri-ESV6 as single agent at different doses (5 MBq/mouse, 15 MBq/mouse, 30 MBq/mouse), ^177Lu-Tri-ESV6+L19-IL2 combination (5 MBq/mouse of ^177Lu-Tri-ESV6 followed by three injections of L19-IL2 at 0.05 mg/mouse) or saline was assessed in athymic Balb/c AnNRj-Foxn1 mice bearing SK-RC-52.hFAP tumor in the right flank. Therapy experiments started when the average volume of established tumors had reached 100-150 mm^3. Body weight of the animals and tumor volume were daily measured and recorded. Tumor dimensions were measured with an electronic caliper and tumor volume was calculated with the formula (long side, mm)×(short side, mm)×(short side, mm)×0.5. Animals were euthanized when one or more termination criterium indicated by the experimental license was reached. Prism 7 software (GraphPad Software) was used for data analysis. […]

SK-RC-52.hFAP tumors [2] = assay: Dose escalation / dose optimization for radiotherapeutic applications; format: in vivo, mouse (female athymic Balb/c AnNRj-Foxn1); conditions: 24 h
Protocol: Prior to the dose optimization study for radiotherapeutic applications, precursors (0.24 to 180 nmol) were dissolved in milliQ water and diluted with sodium acetate (1 M in water, pH=4.5). ^177Lu solution (4 MBq) were added and the mixture was heated at 90 °C for 10 minutes, followed by dilution with PBS to achieve final volume of 400 μL (4 doses of 100 μL each).
Female athymic Balb/c AnNRj-Foxn1 mice bearing subcutis SK-RC-52.hFAP tumors were injected intravenously with eight different doses of ^177Lu-Tri-ESV6-DOTAGA ranging from 3 nmol/kg to 2250 nmol/kg. The mice were sacrificed after 24 h and tumor and healthy organs were harvested and measured with a gamma counter. Since the best tumor to organ ratios are obtained with high doses ranging between 90 and 250 nmol/kg, we anticipate that the ideal dose in human patients for radiotherapeutic applications will be between 1 and 3 milligram per patient. e) Therapeutic efficacy evaluation in tumor bearing mice in dose escalation and in combination with L19-IL2

N#CC1CC(F)(F)CN1C(=O)CNC(=O)c1ccnc2c(NC(=O)CCC(=O)NCCNC(=O)CCOCC(COCCC(=O)NCCNC(=O)CCC(=O)Nc3cccc4c(C(=O)NCC(=O)N5CC(F)(F)CC5C#N)ccnc34)(COCCC(=O)NCCNC(=O)CCC(=O)Nc3cccc4c(C(=O)NCC(=O)N5CC(F)(F)CC5C#N)ccnc34)NC(=O)CCC(C(=O)O)N3CCN(CC(=O)[O-])CCN(CC(=O)[O-])CCN(CC(=O)[O-])CC3)cccc12.[177Lu+3] (stereo not drawn) [^177Lu-Tri-ESV6-DOTAGA]
therapeutic activity, in words (SK-RC-52.hFAP tumors [1]): dose-dependent therapeutic activity
% ID/g in tumor, in words (SK-RC-52.hFAP tumors [2]; highest doses (>90 nmol/kg)): drops
uptake in healthy organs, in words (SK-RC-52.hFAP tumors [2]; lowest doses (<10 nmol/kg)): partially uptaken in healthy organs
